Where a SMILES comes first, the peptide text is derived from it. The star is where a group is joined. βNA = c1ccc2cc(N*)ccc2c1
Legend:
[1] = test system: B. corporis; test: Hydrolytic activity of cell suspension on aminopeptidase substrates (Experiment 2); assay type: cell-based; details: Table 2
Description: (§1) The strains of Treponema were anaerobically cultivated using TYGVS media at 37° C. for 7 days, while other bacterial strains were cultivated using brain heart infusion broth at 37° C. for 48 to 72 hours. Each culture was diluted to obtain a bacterial cell suspension, the absorption at 660 nm of which was 1.0.
(§2) Substrate compounds for aminopeptidase enzyme having various color developing groups derived from β-naphthylamine were dissolved in 0.1M Tris-HCl buffer (pH 7.0) at the concentration of 0.2 mM to obtain substrate solutions.
(§3) To the substrate solution (1.5 ml) was added the above cell suspension (0.3 ml) and reacted at 37° C. for 60 minutes. After completion of the reaction, a coloring reagent [prepared by dissolving diazonium salt of Garnet GBC in 1M acetate buffer (containing 10% Tween 20, pH: 4.2) at the concentration of 0.5 mg/ml] was added and, after 15 minutes, the absorption at 525 nm was determined with a spectrophotometer.
(§4) On the basis of the average amount of released β-naphthylamine in each strain, the hydrolytic activity was expressed as follows: […]
(§5) According to the same manner as described in Experiment 1, periodontopathic bacteria specific aminopeptidase activity was tested by using four strains of Treponema denticola, five strains of B. gingivalis, three strains of B. intermedius, two strains of B. melaninogenicus, two strains of Actinomyces israelli, four strains of Actinobacillus actinomycetemcomitans and three strains of Fusobacterium nucleatum. Abbreviations used in Table 2 mean the following substrate compounds.

[2] = test system: B. gingivalis; test: as above; assay type: cell-based; details: five strains, Table 2
Description: as §1, §2, §3, §4, §5

[3] = test system: B. melaninogenicus; test: as above; assay type: cell-based; details: two strains, Table 2
Description: as §1, §2, §3, §4, §5

[4] = test system: B. intermedius; test: as above; assay type: cell-based; details: three strains, Table 2
Description: as §1, §2, §3, §4, §5

[5] = test system: Treponema denticola; test: as above; assay type: cell-based; details: four strains, Table 2
Description: as §1, §2, §3, §4, §5

[6] = test system: Actinomyces israelli; test: as above; assay type: cell-based; details: two strains, Table 2
Description: as §1, §2, §3, §4, §5

[7] = test system: Fusobacterium nucleatum; test: as above; assay type: cell-based; details: three strains, Table 2
Description: as §1, §2, §3, §4, §5

[8] = test system: Actinobacillus actinomycetemcomitans; test: as above; assay type: cell-based; details: four strains, Table 2
Description: as §1, §2, §3, §4, §5

[9] = test system: B. denticola; test: as above; assay type: cell-based; details: Table 2
Description: as §1, §2, §3, §4, §5

[10] = test system: periodontopathic bacteria specific aminopeptidase activity; test: Hydrolytic activity of saliva supernatant (Experiment 8); assay type: biochemical; details: 37° C. for 4 hours, Table 8
Description: A saliva mixture was collected from a group consisting of ten healthy subjects and centrifuged to obtain a supernatant. Likewise, centrifuged supernatants were obtained from a group of ten subjects with adult periodontitis and a group of four localized juvenile periodontitis. The supernatant was used as a specimen and its hydrolytic activity was determined according to the same manner as described in Experiment 4 except that the reaction was carried out at 37° C. for 4 hours. As the substrates, there were used N-carbobenzoxy-valyl-glycyl-arginine-p-nitrophenol (CxVGR-pNP), N-carbobenzoxy-valyl-glycylarginine-4-methoxy-2-naphthylamide (CxVGR-4NA) and N-carbobenzoxy-valyl-glycyl-arginine-β-naphthylamide (CxVGR-βNA). Color was developed by using lN sodium hydroxide for CxVGR-pNP and Fast Blue BB for CxVGR-4NA and CxVGR-βNA.
According to the same manner as described in Experiment 7, hydrolytic activity was tested by using lysylproline-p-nitroanilide (KP-pNA), lysyl-proline-4-methoxy-2-naphthylamide (KP-4NA) and lysyl-proline-β-naphthylamide (KP-βNA)as the substrates. Color was developed by using lN sodium hydroxide for KP-pNA and Fast Blue BB for KP-4-NA and KP-βNA.

[11] = test system: periodontopathic bacteria specific aminopeptidase activity; test: Hydrolytic activity of gingival crevicular fluid specimens, visually evaluated (Experiment 5); assay type: biochemical; set-up: key: -: orange; +: dark orange; ++: brown; +++: dark brown
Description: as §2, §3
Specimens of gingival crevicular fluid were collected with paper points from five subjects who were considered to be healthy from their clinical state, six subjects with gingivitis and six subjects with periodontitis. Each specimen was dispersed in Ringer's solution (1.5 ml), and the relative amount of spirochete to total bacteria: [formula] was determined with a phase contrast microscope. Further, the Ringer's solution (0.3 ml) was tested for hydrolytic activity using the substrate solution prepared in the same manner as described in Experiment 1. As substrates, there were used compounds of the formula [1], i.e., N-benzoylvalyl-glycyl-arginine-β-naphthylamide (BzVGR) and N-carbobenzoxy-valyl-glycyl-arginine-β-naphthylamide (CxVGR) were used.
In table 4, hydrolytic activity was visually evaluated and expressed as follows: […]
According to the same manner as described in Experiment 4, hydrolytic activity was tested by using the compounds of the formula [2], i.e., lysyl-proline-β-naphthylamide (KP) and N-carbobenzoxy-prolyl-alanyl-glycylproline-β-naphthylamide (CxPAGP) as the substrates.

hydrolytic activity ([10]; Adult Periodontitis subjects): 36.2 ± 9.9 nmol/mL
hydrolytic activity ([10]; Healthy subjects): 16.1 ± 10.3 nmol/mL
hydrolytic activity ([10]; Localized juvenile periodontitis subjects): 33.4 ± 10.0 nmol/mL
hydrolytic activity, visually evaluated ([11]; Gingivitis subject 1 (spirochete 7.3 %)): +
hydrolytic activity, visually evaluated ([11]; Gingivitis subject 2 (spirochete 16.7 %)): +
hydrolytic activity, visually evaluated ([11]; Gingivitis subject 3 (spirochete 20.5 %)): ++
hydrolytic activity, visually evaluated ([11]; Gingivitis subject 4 (spirochete 6.8 %)): -
hydrolytic activity, visually evaluated ([11]; Gingivitis subject 5 (spirochete 7.3 %)): -
hydrolytic activity, visually evaluated ([11]; Gingivitis subject 6 (spirochete 14.4 %)): +
hydrolytic activity, visually evaluated ([11]; Healthy subject 1 (spirochete 0.1 %)): -
hydrolytic activity, visually evaluated ([11]; Healthy subject 2 (spirochete 2.5 %)): +
hydrolytic activity, visually evaluated ([11]; Healthy subject 3 (spirochete 1.1 %)): -
hydrolytic activity, visually evaluated ([11]; Healthy subject 4 (spirochete 0.6 %)): -
hydrolytic activity, visually evaluated ([11]; Healthy subject 5 (spirochete 1.3 %)): -
hydrolytic activity, visually evaluated ([11]; Periodontitis subject 1 (spirochete 45.2 %)): +++
hydrolytic activity, visually evaluated ([11]; Periodontitis subject 2 (spirochete 30.3 %)): +++
hydrolytic activity, visually evaluated ([11]; Periodontitis subject 3 (spirochete 34.6 %)): +++
hydrolytic activity, visually evaluated ([11]; Periodontitis subject 4 (spirochete 21.2 %)): +++
hydrolytic activity, visually evaluated ([11]; Periodontitis subject 5 (spirochete 40.3 %)): +++
hydrolytic activity, visually evaluated ([11]; Periodontitis subject 6 (spirochete 35.1 %)): +++
SMILES: NCCCC[C@H](N)C(=O)N1CCC[C@H]1C(=O)Nc1ccc2ccccc2c1 [KP, lysyl-proline-β-naphthylamide] (H-Lys-Pro-βNA)
hydrolytic activity (average amount of released β-naphthylamine) [1]: ++ (20 ≤release amount<40 nmol/ml)
hydrolytic activity (average amount of released β-naphthylamine) [2]: +++ (release amount≥40 nmol/ml)
hydrolytic activity (average amount of released β-naphthylamine) [3]: ++ (20 ≤release amount<40 nmol/ml)
hydrolytic activity (average amount of released β-naphthylamine) [4]: ++ (20 ≤release amount<40 nmol/ml)
hydrolytic activity (average amount of released β-naphthylamine) [5]: ++ (20 ≤release amount<40 nmol/ml)
hydrolytic activity (average amount of released β-naphthylamine) [6]: - (release amount<5 nmol/ml)
hydrolytic activity (average amount of released β-naphthylamine) [7]: - (release amount<5 nmol/ml)
hydrolytic activity (average amount of released β-naphthylamine) [8]: - (release amount<5 nmol/ml)
hydrolytic activity (average amount of released β-naphthylamine) [9]: ++ (20 ≤release amount<40 nmol/ml)

— US5137811A, “Method for diagnosing periodontal diseases with a substrate specific for aminopeptidase activity of periodontopathic bacteria” (Sunstar Kabushiki Kaisha, priority 1986, dated 1992)
